Data on 17 compounds can be found in US9409952B2, “Peptide-compound cyclization method” (Chugai Seiyaku Kabushiki Kaisha, priority 2011, dated 2016).

Starred links: 1 amine or outer side, 2 acyl side, 3 side chain; linkers in the order of their positions; H or OH if unused. Positions of bridges follow the written chain, without caps; N, C: chain ends. Non-standard residues stand in square brackets, D forms with d. Residues, ends and D or L forms follow the SMILES beside them. *: point of attachment. NMeF = CN[C@@H](Cc1ccccc1)C(=O)O; NMeGABA = CN(CCCC(=O)[*:2])[*:1]; NMeβAla = CN(CCC(=O)[*:2])[*:1]; NMeL = CN[C@@H](CC(C)C)C(=O)O; NMeV = CN[C@H](C(=O)O)C(C)C; NMeA = CN[C@@H](C)C(=O)O; Piperidide = C1CCN(*)CC1; dNMeA = CN[C@H](C)C(=O)O; Sar = CNCC(=O)O

The nature of data set [1]: PAMPA (parallel artificial membrane permeability assay). It is filed as in vitro ADME. The following applies: PAMPA; membrane permeation rate (Pe); 50 mM MOPSO buffer pH 6.5 with 5.0% glycocholic acid, 37° C., 18 hours; read-out: iPAMPA Pe. Summed up:
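Artificial membrane was 10% (w/v) egg lecithin plus 0.5% (w/v) cholesterol in dodecane on a PVDF filter. A 10 mM DMSO stock was added at 0.5% (v/v) to donor buffer (50 mM MOPSO, pH 6.5, 5.0% glycocholic acid). After 18 h at 37 °C, LC/MS or LC/UV gave donor and acceptor levels for Pe.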
For orientation: PAMPA measures passive passage across an artificial lipid membrane.

Data set [2] is described as follows: Metabolic stability in human hepatic microsome. Type of data set: in vitro ADME. The settings on record: microsomes, pH 7.4; human hepatic microsome, NADPH(+); read-out: CL NADPH(+).

Take `CC(C)C[C@@H]1NC(=O)[C@H](Cc2ccccc2)N(C)C(=O)[C@H](C)NC(=O)[C@H](C)N(C)C(=O)C[C@@H](C(=O)N2CCCCC2)NC(=O)[C@H]([C@@H](C)O)NC(=O)[C@H](C)N(C)C(=O)[C@H](C)N(C)C(=O)[C@H](Cc2ccccc2)NC(=O)CN(C)C(=O)[C@H](C(C)C)N(C)C(=O)[C@H](C)N(C)C1=O` [DP-470] ([NMeA]A[NMeF]L[NMeA][NMeV][Sar]F[NMeA][NMeA]TD-Piperidide; lactam N-12): the Papp at 18 hours, 50 µM in data set [1] is 1.2 ×10⁻⁶ cm/s. Also, the microsomal CLint at 1 uM in data set [2] stood at 11 µL/min/mg.
The corresponding values for `CC(C)C[C@H]1C(=O)N[C@@H]([C@@H](C)O)C(=O)N(C)CC(=O)N(C)[C@@H](Cc2ccccc2)C(=O)N(C)[C@@H](CC(C)C)C(=O)N(C)[C@@H](Cc2ccccc2)C(=O)N(C)[C@@H](CC(C)C)C(=O)N[C@@H](C)C(=O)N[C@H](C(=O)N2CCCCC2)CC(=O)N(C)CCC(=O)N(C)[C@@H](C)C(=O)N1C` [DP-471] ([NMeβAla][NMeA][NMeL]T[Sar][NMeF][NMeL][NMeF][NMeL]AD-Piperidide; lactam N-11) are 21 ×10⁻⁶ cm/s and 30 µL/min/mg.
Turning to `CC(C)C[C@@H]1NC(=O)[C@H](C(C)C)NC(=O)[C@H](Cc2ccccc2)NC(=O)CCN(C)C(=O)C[C@@H](C(=O)N2CCCCC2)NC(=O)[C@H](CC(C)C)N(C)C(=O)[C@H](CC(C)C)NC(=O)[C@H](C(C)C)N(C)C(=O)[C@H](CC(C)C)NC(=O)[C@H]([C@@H](C)O)NC(=O)CN(C)C1=O` [DP-472] ([NMeβAla]FVL[Sar]TL[NMeV]L[NMeL]D-Piperidide; lactam N-11), the Papp at 18 hours, 50 µM in data set [1] came out at 24 ×10⁻⁶ cm/s. Further, the microsomal CLint at 1 uM in data set [2] amounted to 52 µL/min/mg.
In the same order, the values of `CC(C)C[C@H]1C(=O)N(C)[C@@H](C(C)C)C(=O)N(C)[C@@H](C)C(=O)N[C@H](C(=O)N2CCCCC2)CC(=O)N(C)CCC(=O)N[C@@H]([C@@H](C)O)C(=O)N[C@@H](C)C(=O)N(C)[C@@H](C)C(=O)N(C)[C@@H](Cc2ccccc2)C(=O)N(C)[C@@H](CC(C)C)C(=O)N[C@@H](Cc2ccccc2)C(=O)N1C` [DP-473] ([NMeβAla]TA[NMeA][NMeF][NMeL]F[NMeL][NMeV][NMeA]D-Piperidide; lactam N-11) are 14 ×10⁻⁶ cm/s and 82 µL/min/mg.
In the same order, the values of `CC(C)C[C@H]1C(=O)N[C@@H](C)C(=O)N(C)[C@@H](Cc2ccccc2)C(=O)N(C)[C@@H](C(C)C)C(=O)N[C@@H](Cc2ccccc2)C(=O)N(C)[C@@H](C)C(=O)N(C)[C@@H](C)C(=O)N[C@H](C(=O)N2CCCCC2)CC(=O)N(C)[C@H](C)C(=O)N[C@@H]([C@@H](C)O)C(=O)N(C)[C@@H](C)C(=O)N1C` [DP-474] ([dNMeA]T[NMeA][NMeL]A[NMeF][NMeV]F[NMeA][NMeA]D-Piperidide; lactam N-11) are 13 ×10⁻⁶ cm/s and 129 µL/min/mg.
The corresponding values for `CC[C@H](C)[C@@H]1NC(=O)[C@H](CC(C)C)NC(=O)[C@@H](C)N(C)C(=O)C[C@@H](C(=O)N2CCCCC2)NC(=O)[C@H](C(C)C)N(C)C(=O)[C@H](CC(C)C)NC(=O)[C@H](Cc2ccccc2)NC(=O)[C@H]([C@@H](C)O)NC(=O)[C@H](CC(C)C)NC(=O)CN(C)C(=O)[C@H](C)NC1=O` [DP-475] ([dNMeA]LIA[Sar]LTFL[NMeV]D-Piperidide; lactam N-11) are 16 ×10⁻⁶ cm/s and 35 µL/min/mg.
As for `CC(C)C[C@H]1C(=O)N(C)[C@@H](C)C(=O)N[C@@H]([C@@H](C)O)C(=O)N(C)[C@@H](C)C(=O)N(C)[C@@H](CC(C)C)C(=O)N(C)[C@@H](Cc2ccccc2)C(=O)N[C@H](C(=O)N2CCCCC2)CC(=O)N(C)[C@H](C)C(=O)N(C)[C@@H](C)C(=O)N[C@@H](C)C(=O)N(C)[C@@H](C)C(=O)N1C` [DP-476] ([dNMeA][NMeA]A[NMeA][NMeL][NMeA]T[NMeA][NMeL][NMeF]D-Piperidide; lactam N-11), in data set [1], the Papp at 18 hours, 50 µM was determined as 2.8 ×10⁻⁶ cm/s. Besides, the microsomal CLint at 1 uM in data set [2] stood at 10 µL/min/mg.
The corresponding values for `CC[C@H](C)[C@@H]1NC(=O)[C@H](Cc2ccccc2)N(C)C(=O)CN(C)C(=O)[C@H]([C@@H](C)O)NC(=O)[C@H](CC(C)C)NC(=O)[C@H](CC(C)C)N(C)C(=O)[C@H](C)N(C)C(=O)CCCN(C)C(=O)C[C@@H](C(=O)N2CCCCC2)NC(=O)[C@H](Cc2ccccc2)N(C)C(=O)[C@H](C(C)C)N(C)C1=O` [DP-477] ([NMeGABA][NMeA][NMeL]LT[Sar][NMeF]I[NMeV][NMeF]D-Piperidide; lactam N-11) are 29 ×10⁻⁶ cm/s and 30 µL/min/mg.
In the same order, the values of `CC[C@H](C)[C@@H]1NC(=O)[C@H](CC(C)C)NC(=O)[C@H](C(C)C)NC(=O)[C@H](CC(C)C)N(C)C(=O)[C@H](CC(C)C)NC(=O)[C@H](Cc2ccccc2)NC(=O)[C@H]([C@@H](C)O)NC(=O)[C@H](C)N(C)C(=O)[C@H](CC(C)C)NC(=O)[C@H](C)N(C)C(=O)C[C@@H](C(=O)N2CCCCC2)NC1=O` [DP-478] ([NMeA]L[NMeA]TFL[NMeL]VLID-Piperidide; lactam N-11) are 18 ×10⁻⁶ cm/s and 50 µL/min/mg.
The corresponding values for `CC(C)C[C@@H]1NC(=O)[C@H](CC(C)C)N(C)C(=O)[C@H](C(C)C)N(C)C(=O)[C@H](C)NC(=O)CN(C)C(=O)[C@H](Cc2ccccc2)NC(=O)[C@H]([C@@H](C)O)NC(=O)[C@H](CC(C)C)N(C)C(=O)[C@H](C)N(C)C(=O)C[C@@H](C(=O)N2CCCCC2)NC(=O)[C@H](CC(C)C)N(C)C1=O` [DP-479] ([NMeA][NMeL]TF[Sar]A[NMeV][NMeL]L[NMeL]D-Piperidide; lactam N-11) are 46 ×10⁻⁶ cm/s and 183 µL/min/mg.
Consider `CC(C)C[C@H]1C(=O)N(C)[C@@H](C)C(=O)N[C@H](C(=O)N2CCCCC2)CC(=O)N(C)[C@@H](C)C(=O)N(C)[C@@H](C)C(=O)N[C@@H](C)C(=O)N(C)[C@@H](C)C(=O)N(C)[C@@H](CC(C)C)C(=O)N(C)[C@@H](Cc2ccccc2)C(=O)N[C@@H]([C@@H](C)O)C(=O)N(C)[C@@H](C)C(=O)N1C` [DP-480] ([NMeA][NMeA]A[NMeA][NMeL][NMeF]T[NMeA][NMeL][NMeA]D-Piperidide; lactam N-11), for which the Papp at 18 hours, 50 µM in data set [1] was 6.6 ×10⁻⁶ cm/s. Besides, the microsomal CLint at 1 uM in data set [2] came to 15 µL/min/mg.
In the same order, the values of `CC[C@H](C)[C@@H]1NC(=O)[C@H](C)N(C)C(=O)C[C@@H](C(=O)N2CCCCC2)NC(=O)[C@H](Cc2ccccc2)NC(=O)[C@H](CC(C)C)N(C)C(=O)[C@H](C(C)C)N(C)C(=O)[C@H](C)N(C)C(=O)[C@H]([C@@H](C)O)NC(=O)[C@H](Cc2ccccc2)N(C)C(=O)[C@H](C)N(C)C(=O)[C@H](CC(C)C)N(C)C1=O` [DP-481] ([NMeA]I[NMeL][NMeA][NMeF]T[NMeA][NMeV][NMeL]FD-Piperidide; lactam N-11) are 31 ×10⁻⁶ cm/s and 82 µL/min/mg.
For `CC(C)C[C@H]1C(=O)N(C)[C@@H](C)C(=O)N(C)[C@@H](Cc2ccccc2)C(=O)N[C@@H]([C@@H](C)O)C(=O)N(C)CC(=O)N(C)[C@@H](Cc2ccccc2)C(=O)N(C)[C@@H](CC(C)C)C(=O)N[C@@H](C)C(=O)N[C@H](C(=O)N2CCCCC2)CC(=O)N(C)[C@@H](C)C(=O)N(C)[C@@H](C)C(=O)N1C` [DP-482] ([NMeA][NMeA][NMeL][NMeA][NMeF]T[Sar][NMeF][NMeL]AD-Piperidide; lactam N-11), the Papp at 18 hours, 50 µM in data set [1] was 3.7 ×10⁻⁶ cm/s. Moreover, the microsomal CLint at 1 uM in data set [2] turned out to be 11 µL/min/mg.
In the same order, the values of `CC[C@H](C)[C@@H]1NC(=O)[C@H](C)NC(=O)C[C@@H](C(=O)N(C)[C@@H](Cc2ccccc2)C(=O)N[C@@H](C)C(=O)N2CCCCC2)NC(=O)[C@H](Cc2ccccc2)NC(=O)[C@H](C)N(C)C(=O)[C@H](C(C)C)N(C)C(=O)CN(C)C(=O)[C@H]([C@@H](C)O)NC(=O)[C@H](Cc2ccccc2)N(C)C(=O)[C@H](CC(C)C)N(C)C(=O)[C@H](CC(C)C)N(C)C1=O` [DP-483] (AI[NMeL][NMeL][NMeF]T[Sar][NMeV][NMeA]FD[NMeF]A-Piperidide; lactam N-11) are 18 ×10⁻⁶ cm/s and 23 µL/min/mg.
In the same order, the values of `CC(C)C[C@@H]1NC(=O)[C@H](Cc2ccccc2)N(C)C(=O)[C@H](C(C)C)N(C)C(=O)CN(C)C(=O)[C@H]([C@@H](C)O)NC(=O)[C@H](Cc2ccccc2)N(C)C(=O)[C@H](CC(C)C)N(C)C(=O)[C@H](CC(C)C)N(C)C(=O)[C@H](C)NC(=O)[C@@H](C(C)C)NC(=O)C[C@@H](C(=O)N(C)[C@@H](Cc2ccccc2)C(=O)N[C@@H](C)C(=O)N2CCCCC2)NC1=O` [DP-484] ([dV]A[NMeL][NMeL][NMeF]T[Sar][NMeV][NMeF]LD[NMeF]A-Piperidide; lactam N-11) are 13 ×10⁻⁶ cm/s and 29 µL/min/mg.
In the same order, the values of `CC[C@H](C)[C@@H]1NC(=O)[C@H](C(C)C)N(C)C(=O)[C@H](C)N(C)C(=O)[C@H]([C@@H](C)O)NC(=O)[C@@H](C)N(C)C(=O)C[C@@H](C(=O)N2CCCCC2)NC(=O)[C@H](C)NC(=O)[C@H](Cc2ccccc2)N(C)C(=O)CN(C)C(=O)[C@H](CC(C)C)N(C)C1=O` [DP-485] ([dNMeA]T[NMeA][NMeV]I[NMeL][Sar][NMeF]AD-Piperidide; lactam N-10) are 5.9 ×10⁻⁶ cm/s and 45 µL/min/mg.
As to `CC[C@H](C)[C@@H]1NC(=O)[C@H](C)N(C)C(=O)[C@H](CC(C)C)N(C)C(=O)CCCN(C)C(=O)C[C@@H](C(=O)N2CCCCC2)NC(=O)[C@H](C)N(C)C(=O)[C@H](Cc2ccccc2)N(C)C(=O)[C@H]([C@@H](C)O)NC(=O)[C@H](Cc2ccccc2)N(C)C(=O)[C@H](CC(C)C)N(C)C1=O` [DP-487] ([NMeGABA][NMeL][NMeA]I[NMeL][NMeF]T[NMeF][NMeA]D-Piperidide; lactam N-10), the Papp at 18 hours, 50 µM in data set [1] was determined as 24 ×10⁻⁶ cm/s. Further, the microsomal CLint at 1 uM in data set [2] came out at 386 µL/min/mg.
